Source: the kinase profiling compilation of Christmann-Franck et al. (2016)

Legend:
Assay in all cases: KINOMEscan competition binding
Settings in all cases: compound 10.0 µM
MARK4 (human) = MARK4 (human) (UniProt Q96L34)
MAPK3 (human) = MAPK3 (human) (UniProt P27361)
STK38L (human) = STK38L (human) (UniProt Q9Y2H1)
MAP4K2 (human) = MAP4K2 (human) (UniProt Q12851)
[1] = target: JAK3 JH1 catalytic (human) (UniProt P52333)
CLK1 (human) = CLK1 (human) (UniProt P49759)
INSRR (human) = INSRR (human) (UniProt P14616)
CSNK1A1L (human) = CSNK1A1L (human) (UniProt Q8N752)
CDK16 (human) = CDK16 (human) (UniProt Q00536)
MARK2 (human) = MARK2 (human) (UniProt Q7KZI7)
[2] = target: JAK1 JH2 pseudokinase (human) (UniProt P23458)
GSK3A (human) = GSK3A (human) (UniProt P49840)
CLK3 (human) = CLK3 (human) (UniProt P49761)
CLK3 (human), sequence (P49761 whole entry, looked up): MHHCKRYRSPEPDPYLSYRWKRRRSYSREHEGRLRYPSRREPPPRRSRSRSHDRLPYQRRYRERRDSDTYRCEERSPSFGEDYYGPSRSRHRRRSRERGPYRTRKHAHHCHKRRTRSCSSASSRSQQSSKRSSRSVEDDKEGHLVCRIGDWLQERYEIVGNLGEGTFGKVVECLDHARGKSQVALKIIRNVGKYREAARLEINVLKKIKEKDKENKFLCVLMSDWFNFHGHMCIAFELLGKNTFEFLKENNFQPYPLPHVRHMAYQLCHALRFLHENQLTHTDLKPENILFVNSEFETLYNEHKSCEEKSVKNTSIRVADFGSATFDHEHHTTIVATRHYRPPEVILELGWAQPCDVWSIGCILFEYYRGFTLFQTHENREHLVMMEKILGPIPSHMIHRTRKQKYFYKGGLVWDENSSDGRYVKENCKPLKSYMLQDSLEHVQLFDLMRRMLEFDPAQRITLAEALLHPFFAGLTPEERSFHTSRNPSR

NEK6 (human) = NEK6 (human) (UniProt Q9HC98)
NEK6 (human), sequence (Q9HC98 whole entry, looked up): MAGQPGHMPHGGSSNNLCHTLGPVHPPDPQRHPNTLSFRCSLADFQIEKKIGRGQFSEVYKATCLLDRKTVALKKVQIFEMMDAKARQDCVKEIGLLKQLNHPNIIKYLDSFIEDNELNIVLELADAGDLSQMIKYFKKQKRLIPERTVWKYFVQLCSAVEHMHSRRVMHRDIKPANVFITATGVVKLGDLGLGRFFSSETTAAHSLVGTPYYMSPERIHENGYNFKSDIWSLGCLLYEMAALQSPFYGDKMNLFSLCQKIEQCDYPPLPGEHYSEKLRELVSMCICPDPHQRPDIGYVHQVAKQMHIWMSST

MYO3A (human) = MYO3A (human) (UniProt Q8NEV4)
CDC42BPA (human) = CDC42BPA (human) (UniProt Q5VT25)
IKBKE (human) = IKBKE (human) (UniProt Q14164)
EPHA3 (human) = EPHA3 (human) (UniProt P29320)
SIK2 (human) = SIK2 (human) (UniProt Q9H0K1)
CDK9 (human) = CDK9 (human) (UniProt P50750)
CDK9 (human), sequence (P50750 whole entry, looked up): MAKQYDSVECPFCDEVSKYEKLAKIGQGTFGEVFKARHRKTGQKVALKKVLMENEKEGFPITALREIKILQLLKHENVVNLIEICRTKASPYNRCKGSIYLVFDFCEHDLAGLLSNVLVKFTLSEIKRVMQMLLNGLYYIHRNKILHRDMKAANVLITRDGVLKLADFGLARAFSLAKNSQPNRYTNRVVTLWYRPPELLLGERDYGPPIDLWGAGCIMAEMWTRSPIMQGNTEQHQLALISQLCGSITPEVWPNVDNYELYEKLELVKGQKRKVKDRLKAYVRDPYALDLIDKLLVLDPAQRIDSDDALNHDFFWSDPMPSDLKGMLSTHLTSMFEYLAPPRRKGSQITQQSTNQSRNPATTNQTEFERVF

MST1R (human) = MST1R (human) (UniProt Q04912)
TGFBR2 (human) = TGFBR2 (human) (UniProt P37173)
TGFBR2 (human), sequence (P37173 whole entry, looked up): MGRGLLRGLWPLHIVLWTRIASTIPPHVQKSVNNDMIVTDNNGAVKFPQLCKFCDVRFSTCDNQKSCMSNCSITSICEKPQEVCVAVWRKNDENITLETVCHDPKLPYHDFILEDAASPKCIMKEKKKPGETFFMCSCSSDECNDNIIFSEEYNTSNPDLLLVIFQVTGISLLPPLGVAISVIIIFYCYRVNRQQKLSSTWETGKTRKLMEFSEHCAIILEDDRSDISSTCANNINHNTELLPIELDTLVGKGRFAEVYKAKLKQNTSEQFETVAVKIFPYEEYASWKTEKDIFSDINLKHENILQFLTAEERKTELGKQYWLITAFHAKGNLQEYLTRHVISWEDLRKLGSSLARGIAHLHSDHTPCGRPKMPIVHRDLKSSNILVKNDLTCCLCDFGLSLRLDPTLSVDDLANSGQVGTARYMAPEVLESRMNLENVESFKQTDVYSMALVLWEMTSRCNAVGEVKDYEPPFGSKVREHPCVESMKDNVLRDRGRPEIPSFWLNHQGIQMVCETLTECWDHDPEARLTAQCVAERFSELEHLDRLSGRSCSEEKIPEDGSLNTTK

PRKACB (human) = PRKACB (human) (UniProt P22694)
STK25 (human) = STK25 (human) (UniProt O00506)
CAMKK1 (human) = CAMKK1 (human) (UniProt Q8N5S9)
SLK (human) = SLK (human) (UniProt Q9H2G2)
ZAP70 (human) = ZAP70 (human) (UniProt P43403)
ALK (human) = ALK (human) (UniProt Q9UM73)
PRKAA1 (human) = PRKAA1 (human) (UniProt Q13131)
ROS1 (human) = ROS1 (human) (UniProt P08922)
SYK (human) = SYK (human) (UniProt P43405)
LATS2 (human) = LATS2 (human) (UniProt Q9NRM7)
STK16 (human) = STK16 (human) (UniProt O75716)
STK16 (human), sequence (O75716 whole entry, looked up): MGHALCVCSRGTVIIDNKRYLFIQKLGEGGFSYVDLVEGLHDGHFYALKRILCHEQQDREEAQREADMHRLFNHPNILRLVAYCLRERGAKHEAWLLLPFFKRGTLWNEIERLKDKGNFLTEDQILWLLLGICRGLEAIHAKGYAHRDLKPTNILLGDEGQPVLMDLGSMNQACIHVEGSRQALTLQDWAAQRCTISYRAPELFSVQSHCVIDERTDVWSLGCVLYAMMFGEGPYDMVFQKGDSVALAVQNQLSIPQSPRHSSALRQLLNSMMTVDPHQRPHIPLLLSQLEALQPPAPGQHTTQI

RPS6KA1 KD1 (human) = RPS6KA1 KD1 (human) (UniProt Q15418)
CAMK2D (human) = CAMK2D (human) (UniProt Q13557)
MARK1 (human) = MARK1 (human) (UniProt Q9P0L2)
NEK9 (human) = NEK9 (human) (UniProt Q8TD19)
NEK9 (human), sequence (Q8TD19 whole entry, looked up): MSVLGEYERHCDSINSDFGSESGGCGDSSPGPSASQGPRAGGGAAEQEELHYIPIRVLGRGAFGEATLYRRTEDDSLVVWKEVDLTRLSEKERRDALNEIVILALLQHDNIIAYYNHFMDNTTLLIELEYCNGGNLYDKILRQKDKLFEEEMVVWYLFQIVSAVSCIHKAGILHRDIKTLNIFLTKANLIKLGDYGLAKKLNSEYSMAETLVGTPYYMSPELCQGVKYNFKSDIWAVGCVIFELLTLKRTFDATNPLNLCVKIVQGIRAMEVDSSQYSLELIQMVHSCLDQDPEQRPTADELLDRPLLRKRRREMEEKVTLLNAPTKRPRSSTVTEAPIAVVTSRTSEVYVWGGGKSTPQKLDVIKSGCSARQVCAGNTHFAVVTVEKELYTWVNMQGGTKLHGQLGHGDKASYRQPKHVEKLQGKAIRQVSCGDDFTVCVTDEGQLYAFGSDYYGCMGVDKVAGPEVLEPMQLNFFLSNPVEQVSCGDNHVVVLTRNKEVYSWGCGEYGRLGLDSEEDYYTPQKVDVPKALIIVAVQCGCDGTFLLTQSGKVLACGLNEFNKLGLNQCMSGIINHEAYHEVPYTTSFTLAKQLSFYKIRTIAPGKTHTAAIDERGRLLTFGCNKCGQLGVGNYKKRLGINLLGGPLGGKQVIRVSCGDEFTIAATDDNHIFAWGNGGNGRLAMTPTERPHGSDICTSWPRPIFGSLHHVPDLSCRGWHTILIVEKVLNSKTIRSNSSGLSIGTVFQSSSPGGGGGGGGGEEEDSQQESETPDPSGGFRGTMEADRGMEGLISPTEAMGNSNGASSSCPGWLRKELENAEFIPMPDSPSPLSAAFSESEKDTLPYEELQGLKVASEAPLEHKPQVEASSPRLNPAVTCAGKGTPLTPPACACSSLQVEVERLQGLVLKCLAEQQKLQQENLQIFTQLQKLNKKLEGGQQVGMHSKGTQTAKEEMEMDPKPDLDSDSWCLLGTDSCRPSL

PRKX (human) = PRKX (human) (UniProt P51817)
PRKX (human), sequence (P51817 whole entry, looked up): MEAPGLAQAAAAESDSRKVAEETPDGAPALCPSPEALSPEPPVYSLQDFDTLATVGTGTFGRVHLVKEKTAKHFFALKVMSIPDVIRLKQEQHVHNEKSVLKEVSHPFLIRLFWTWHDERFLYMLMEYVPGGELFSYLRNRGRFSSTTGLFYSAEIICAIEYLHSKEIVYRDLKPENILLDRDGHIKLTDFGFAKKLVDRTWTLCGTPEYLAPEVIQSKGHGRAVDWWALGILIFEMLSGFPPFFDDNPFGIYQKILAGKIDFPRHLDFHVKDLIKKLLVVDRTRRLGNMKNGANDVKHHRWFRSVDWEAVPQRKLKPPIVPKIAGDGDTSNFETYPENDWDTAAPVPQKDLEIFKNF

SRPK2 (human) = SRPK2 (human) (UniProt P78362)
AXL (human) = AXL (human) (UniProt P30530)
AXL (human), sequence (P30530 whole entry, looked up): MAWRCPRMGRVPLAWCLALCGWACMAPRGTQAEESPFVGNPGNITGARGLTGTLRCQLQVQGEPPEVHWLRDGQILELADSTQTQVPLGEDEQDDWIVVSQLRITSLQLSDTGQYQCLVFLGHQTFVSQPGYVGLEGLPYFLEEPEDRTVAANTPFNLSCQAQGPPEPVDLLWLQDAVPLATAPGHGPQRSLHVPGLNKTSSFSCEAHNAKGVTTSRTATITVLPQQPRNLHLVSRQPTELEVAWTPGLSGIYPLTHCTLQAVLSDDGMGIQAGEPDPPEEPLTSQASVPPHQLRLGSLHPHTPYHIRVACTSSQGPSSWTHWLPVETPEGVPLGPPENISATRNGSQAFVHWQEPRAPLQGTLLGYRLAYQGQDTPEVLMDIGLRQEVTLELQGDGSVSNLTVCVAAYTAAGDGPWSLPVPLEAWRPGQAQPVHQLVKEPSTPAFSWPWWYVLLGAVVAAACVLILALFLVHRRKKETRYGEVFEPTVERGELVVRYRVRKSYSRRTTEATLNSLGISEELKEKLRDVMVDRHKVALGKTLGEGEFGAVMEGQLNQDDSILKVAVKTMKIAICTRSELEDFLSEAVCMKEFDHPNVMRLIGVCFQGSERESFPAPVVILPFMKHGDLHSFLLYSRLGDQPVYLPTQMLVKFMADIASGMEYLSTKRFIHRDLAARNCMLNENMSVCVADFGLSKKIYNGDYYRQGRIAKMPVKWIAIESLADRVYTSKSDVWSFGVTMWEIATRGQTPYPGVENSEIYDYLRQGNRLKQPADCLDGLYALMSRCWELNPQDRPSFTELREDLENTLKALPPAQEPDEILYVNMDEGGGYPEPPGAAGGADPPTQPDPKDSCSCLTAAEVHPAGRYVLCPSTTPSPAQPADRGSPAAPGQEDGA

CLK1 (human), sequence (P49759 whole entry, looked up): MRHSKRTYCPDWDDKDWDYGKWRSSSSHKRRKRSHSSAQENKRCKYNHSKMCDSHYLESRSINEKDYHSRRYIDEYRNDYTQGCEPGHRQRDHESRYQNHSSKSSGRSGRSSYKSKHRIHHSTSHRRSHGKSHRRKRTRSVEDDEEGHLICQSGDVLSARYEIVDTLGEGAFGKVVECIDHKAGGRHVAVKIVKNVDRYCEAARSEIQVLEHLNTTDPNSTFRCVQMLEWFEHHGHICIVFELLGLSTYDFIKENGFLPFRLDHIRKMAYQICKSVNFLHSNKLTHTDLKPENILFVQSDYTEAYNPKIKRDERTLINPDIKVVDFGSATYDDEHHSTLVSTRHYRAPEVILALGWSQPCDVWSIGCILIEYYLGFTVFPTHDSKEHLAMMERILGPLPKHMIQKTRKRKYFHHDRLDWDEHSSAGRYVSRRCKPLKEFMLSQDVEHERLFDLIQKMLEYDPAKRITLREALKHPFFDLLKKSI

SMILES | kinase still bound, per cent of control (MARK4 (human)) [%] | kinase still bound, per cent of control (MAPK3 (human)) [%] | kinase still bound, per cent of control (STK38L (human)) [%] | kinase still bound, per cent of control (MAP4K2 (human)) [%] | kinase still bound, per cent of control [1] [%] | kinase still bound, per cent of control (CLK1 (human)) [%] | kinase still bound, per cent of control (INSRR (human)) [%] | kinase still bound, per cent of control (CSNK1A1L (human)) [%] | kinase still bound, per cent of control (CDK16 (human)) [%] | kinase still bound, per cent of control (MARK2 (human)) [%] | kinase still bound, per cent of control [2] [%] | kinase still bound, per cent of control (GSK3A (human)) [%] | kinase still bound, per cent of control (CLK3 (human)) [%] | kinase still bound, per cent of control (NEK6 (human)) [%] | kinase still bound, per cent of control (MYO3A (human)) [%] | kinase still bound, per cent of control (CDC42BPA (human)) [%] | kinase still bound, per cent of control (IKBKE (human)) [%] | kinase still bound, per cent of control (EPHA3 (human)) [%] | kinase still bound, per cent of control (SIK2 (human)) [%] | kinase still bound, per cent of control (CDK9 (human)) [%] | also measured
CCN1CCN(Cc2ccc(Nc3ncc4c(n3)N(C)c3ccccc3C(=O)N4C)cc2C(F)(F)F)CC1 | 19 | 99 | 90 | 17 | 9.8 | 86 | 100 | 74 | 92 | 40 | 0.1 | 100 | 92 | 64 | 88 | 70 | 73 | 100 | 24 | 100 | kinase still bound, per cent of control (MST1R (human)): 100%; kinase still bound, per cent of control (TGFBR2 (human)): 94%; kinase still bound, per cent of control (PRKACB (human)): 100%; kinase still bound, per cent of control (STK25 (human)): 47%; kinase still bound, per cent of control (CAMKK1 (human)): 79%; kinase still bound, per cent of control (SLK (human)): 2.4%; kinase still bound, per cent of control (ZAP70 (human)): 90%; kinase still bound, per cent of control (ALK (human)): 64%; kinase still bound, per cent of control (PRKAA1 (human)): 2.4%; kinase still bound, per cent of control (ROS1 (human)): 11%; kinase still bound, per cent of control (SYK (human)): 78%; kinase still bound, per cent of control (LATS2 (human)): 91%; kinase still bound, per cent of control (STK16 (human)): 15%; kinase still bound, per cent of control (RPS6KA1 KD1 (human)): 100%; kinase still bound, per cent of control (CAMK2D (human)): 69%; kinase still bound, per cent of control (MARK1 (human)): 21%; kinase still bound, per cent of control (NEK9 (human)): 72%; kinase still bound, per cent of control (PRKX (human)): 100%; kinase still bound, per cent of control (SRPK2 (human)): 81%; kinase still bound, per cent of control (AXL (human)): 11%
C=CC(=O)Nc1cccc(Nc2nc(N[C@H]3CC[C@H](N(C)C)CC3)nc3c2ncn3C(C)C)c1 | 94 | 100 | 41 | 31 | 89 | 1 | 64 | 1.5 | 100 | 57 | 76 | 100 | 9 | 90 | 94 | 82 | 95 | 54 | 69 | 100 | kinase still bound, per cent of control (MST1R (human)): 100%; kinase still bound, per cent of control (TGFBR2 (human)): 100%; kinase still bound, per cent of control (PRKACB (human)): 100%; kinase still bound, per cent of control (STK25 (human)): 89%; kinase still bound, per cent of control (CAMKK1 (human)): 40%; kinase still bound, per cent of control (SLK (human)): 26%; kinase still bound, per cent of control (ZAP70 (human)): 77%; kinase still bound, per cent of control (ALK (human)): 21%; kinase still bound, per cent of control (PRKAA1 (human)): 78%; kinase still bound, per cent of control (ROS1 (human)): 99%; kinase still bound, per cent of control (SYK (human)): 72%; kinase still bound, per cent of control (LATS2 (human)): 70%; kinase still bound, per cent of control (STK16 (human)): 72%; kinase still bound, per cent of control (RPS6KA1 KD1 (human)): 9.4%; kinase still bound, per cent of control (CAMK2D (human)): 53%; kinase still bound, per cent of control (MARK1 (human)): 94%; kinase still bound, per cent of control (NEK9 (human)): 100%; kinase still bound, per cent of control (PRKX (human)): 100%; kinase still bound, per cent of control (SRPK2 (human)): 92%; kinase still bound, per cent of control (AXL (human)): 40%
